What was measured:
Assay in all cases: relative viability (nuclei count vs DMSO), 5 days (fraction); higher = more cells survive
BGJ398 + Pemetrexed = compound: CCN1CCN(c2ccc(Nc3cc(N(C)C(=O)Nc4c(Cl)c(OC)cc(OC)c4Cl)ncn3)cc2)CC1 [BGJ398] + Nc1nc2[nH]cc(CCc3ccc(C(=O)N[C@@H](CCC(=O)O)C(=O)O)cc3)c2c(=O)[nH]1 [Pemetrexed] (partner 0.2 µM)
Procedure, shortened: (§1)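 Medians of duplicate plates are given as relative viability. That measure is the nuclei count in treated wells divided by the count in vehicle wells. Counts were taken on 4× images of lung cancer cell lines in 1536-well plates, 5 days after pin-tool dosing the day after seeding with one drug alone or a fixed anchor-drug dose plus five library-drug doses (not always all listed) in √10 steps.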

[1] = compound: C1=CC2=NC=CN=C2C=C1/C=C/3\C(=O)NC(=O)S3 + Cc1nc(NC(=O)N2CCC[C@H]2C(N)=O)sc1-c1ccnc(C(C)(C)C(F)(F)F)c1 [Alpelisib] (partner 2 µM)
Procedure, shortened: as §1

BGJ398 = compound: CCN1CCN(c2ccc(Nc3cc(N(C)C(=O)Nc4c(Cl)c(OC)cc(OC)c4Cl)ncn3)cc2)CC1 [BGJ398]
Procedure, shortened: (§2)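 Viability is treated-well nuclei as a fraction of vehicle-well nuclei, reported as the median across plates. Before counting, lung cancer cell lines were kept overnight at 37 °C in 1536-well plates, pinned with five √10-spaced library-drug doses on vehicle-anchored plates, and left 5 days without medium change, then fixed, permeabilised and Hoechst-stained in one step, imaged at 4× and counted by MetaXpress. A plate passed only if control CV was below 25% and at least one doubling occurred.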

[2] = compound: C1=CC2=NC=CN=C2C=C1/C=C/3\C(=O)NC(=O)S3
Procedure, shortened: as §2

Cell Line	relative viability (BGJ398 + Pemetrexed; first compound 0.01 µM)	relative viability (BGJ398 + Pemetrexed; first compound 0.03162 µM)	relative viability (BGJ398 + Pemetrexed; first compound 0.1 µM)	relative viability (BGJ398 + Pemetrexed; first compound 0.3162 µM)	relative viability (BGJ398 + Pemetrexed; first compound 1 µM)	relative viability ([1]; first compound 0.02 µM)	relative viability ([1]; first compound 0.06325 µM)	relative viability ([1]; first compound 0.2 µM)	relative viability ([1]; first compound 0.6325 µM)	relative viability ([1]; first compound 2 µM)	relative viability (BGJ398; 0.01 µM)	relative viability (BGJ398; 0.03162 µM)	relative viability (BGJ398; 0.1 µM)	relative viability (BGJ398; 0.3162 µM)	relative viability (BGJ398; 1 µM)	relative viability ([2]; 0.02 µM)	relative viability ([2]; 0.06325 µM)	relative viability ([2]; 0.2 µM)	relative viability ([2]; 0.6325 µM)	relative viability ([2]; 2 µM)
LCLC-103H	0.459	0.503	0.401	0.494	0.541	0.876	0.906	1.01	1.03	0.925	0.984	0.903	1.06	0.792	0.79	0.957	1.05	0.969	0.918	0.852
LK-2	0.213	0.194	0.114	0.157	0.12	1.17	1.1	1.08	0.984	0.946	0.867	0.776	0.638	0.399	0.263	1.02	1.06	1.14	0.896	0.566
LOU-NH91	0.375	0.407	0.408	0.376	0.381	0.721	0.762	0.676	0.738	0.728	0.935	0.883	0.971	0.771	0.931	0.997	0.988	1.01	0.978	0.805
LU99A	0.176	0.182	0.169	0.224	0.204	0.575	0.562	0.607	0.501	0.393	0.884	0.95	0.89	0.908	0.792	1.07	1.11	0.979	0.871	0.518
LXF-289	0.923	0.849	0.88	0.801	0.923	0.999	1.01	1.06	0.984	1.07	0.949	0.948	0.944	0.875	0.942	0.996	0.95	0.956	0.97	1.01
NCI-H23	0.735	0.652	0.528	0.715	0.541	0.67	0.803	0.589	0.692	0.567	0.994	0.974	0.966	0.937	0.979	1.01	1.21	1.1	0.876	0.753
NCI-H322M	0.662	0.635	0.637	0.603	0.631	0.835	0.713	0.74	0.852	0.67	1.07	0.754	0.948	0.815	1.02	0.935	0.969	0.995	0.916	0.739
NCI-H358	0.173	0.167	0.199	0.17	0.188	0.953	0.955	0.87	0.791	0.547	0.843	0.942	1.1	0.882	1.3	1.08	0.959	0.955	0.887	0.425
NCI-H441	–	0.234	0.243	0.251	0.288	0.714	0.844	–	0.876	0.636	0.807	0.977	1.16	1.05	1.01	0.863	0.875	0.885	1.2	0.736
NCI-H460	0.0621	0.0761	0.0595	0.0608	0.0687	0.508	0.514	0.464	0.429	0.379	1.02	1.04	1.11	0.984	0.988	0.933	0.964	0.999	0.939	0.942
NCI-H520	0.691	0.532	0.531	0.341	0.311	0.866	0.948	0.822	0.877	1.01	0.954	0.954	0.758	0.312	0.4	1.03	1.14	1.06	0.855	0.927
NCI-H596	0.424	0.476	0.439	0.477	0.431	0.486	0.451	0.469	0.537	0.502	1.13	0.931	0.978	0.92	0.8	1.06	0.938	1.1	0.834	0.867
NCI-H647	0.179	0.16	0.19	0.201	0.185	0.865	1.89	1.28	1.06	1.14	0.869	1.07	1.03	0.867	0.799	0.959	1.13	1.08	0.84	0.938
NCI-H650	0.988	0.931	0.995	0.956	0.974	1.08	1.04	1.06	1.1	1.02	0.883	1.21	1.02	1.03	0.665	0.951	1.04	1.07	0.914	0.529
NCI-H661	0.912	0.877	0.961	0.977	0.912	0.651	0.614	0.952	0.732	0.469	0.977	0.997	0.983	0.987	0.914	1.01	1.04	1.02	0.972	1.07

From the supplement of paper PMC10307832
